Earlier results on one molecule are cited in patent US20060013877A1 (Nanohybrid Co., Ltd., priority 2002, published 2006).

Each structure is given as a SMILES string.

As for `CCC(C)n1ncn(-c2ccc(N3CCN(c4ccc(OC[C@H]5CO[C@](Cn6cncn6)(c6ccc(Cl)cc6Cl)O5)cc4)CC3)cc2)c1=O` (mixture of isomers) [itraconazole, (±)-cis-4-[4-[4-[4-[[2-(2,4-dichlorophenyl)-2-(1H-1,2,4-triazole-1-ylmethyl)-1,3-dioxoran-4-yl]methoxy]phenyl]-1-piperazinyl]phenyl]-2,4-dihydro-2-(1-methylpropyl)-3H-1,2,4-triazole-3-one], the water solubility result is recorded as “about 1 mg/ml”.
